Results as given in ChEMBL document CHEMBL5370669, “Isolation and Structure Determination of Akunolides, Macrolide Glycosides from a Marine Okeania sp. Cyanobacterium” (J Nat Prod, 2023).

Tests used:
[1] = Selectivity ratio of IC50 for cytotoxicity against human WI-38 cells to IC50 for antitrypanosomal activity against Trypanosoma brucei rhodesiense IL-1501; format: toxicity, cell-based
[2] = test system: Trypanosoma brucei rhodesiense; assay: Antitrypanosomal activity against blood stream form of Trypanosoma brucei rhodesiense IL-1501 assessed as growth inhibition incubated for 69 hrs by alamar blue staining based microplate fluorescence scanner analysis; format: functional, organism-based; settings: IL-1501, 69 h
[3] = Growth inhibition of human WI-38 cells incubated for 72 hrs by MTT assay; format: toxicity, cell-based

IC50 [2] [µM] | Compound | selectivity ratio [1] | IC50 at 72 h [3] [µM]
11 | C=CCCC/C=C/C=C/[C@H]1OC(=O)C[C@@H]2O[C@H](C[C@H](O)C[C@H](C)C[C@@H](O)C1(C)C)C[C@H](O[C@@H]1OC[C@@H](OC)[C@H](OC)[C@H]1O)C2(C)C | 5 | 55
12 | C=CCCC/C=C/C=C/[C@H]1OC(=O)C[C@@H]2O[C@H](C[C@H](O)C[C@H](C)C[C@@H](O)C1(C)C)C[C@H](O[C@@H]1OC[C@@H](OC)[C@H](O)[C@H]1O)C2(C)C | > 15 | > 150
14 | CCCCC/C=C/C=C/[C@H]1OC(=O)C[C@@H]2O[C@H](C[C@H](O)C[C@H](C)C[C@@H](O)C1(C)C)C[C@H](O[C@@H]1OC[C@@H](OC)[C@H](O)[C@H]1O)C2(C)C |  | 49
11 | C#CCCC/C=C/C=C/[C@H]1OC(=O)C[C@@H]2O[C@H](C[C@H](O)C[C@H](C)C[C@@H](O)C1(C)C)C[C@H](O[C@@H]1OC[C@@H](OC)[C@H](OC)[C@H]1O)C2(C)C | > 15 | > 150
0.006 | N=C(N)c1ccc(OCCCCCOc2ccc(C(=N)N)cc2)cc1 [PENTAMIDINE] |  | 
